Experimental data published in ChEMBL document CHEMBL5465560, “Selectivity Literature for EUbOPEN Chemogenomic Library” (2024).

What was measured:
[1] = target: Wee1-like protein kinase (Homo sapiens) (UniProt P30291); test: Selectivity interaction (Ambit KINOMEscan and KiNATiv profiling in Jurkat cells) EUB0000090b WEE1; type: cell-based; settings: at 1 µM
[2] = target: Serine/threonine-protein kinase RIO2 (Homo sapiens) (UniProt Q9BVS4); test: Selectivity interaction (KinomeScan (DiscoverX)) EUB0000655a RIOK2; settings: at 10 µM
[3] = target: MAP kinase-interacting serine/threonine-protein kinase 1 (Homo sapiens) (UniProt Q9BUB5); test: Selectivity interaction (KinomeScan (DiscoverX)) EUB0001619a MKNK1; settings: at 1 µM
[4] = target: Calcium/calmodulin-dependent protein kinase type II subunit gamma (Homo sapiens) (UniProt Q13555); test: Selectivity interaction (KinomeScan (DiscoverX)) EUB0001619a CAMK2G; settings: at 1 µM
[5] = target: Serine/threonine-protein kinase 24 (Homo sapiens) (UniProt Q9Y6E0); test: Selectivity interaction (KinomeScan (DiscoverX)) EUB0001619a STK24; settings: at 1 µM
[6] = target: Proto-oncogene tyrosine-protein kinase Src (Homo sapiens, UniProt P12931); test: Selectivity interaction (KinomeScan (DiscoverX)) EUB0000595a SRC; settings: at 10 µM
[7] = target: Maternal embryonic leucine zipper kinase (Homo sapiens) (UniProt Q14680); test: Selectivity interaction (KinomeScan (DiscoverX)) EUB0000595a MELK; settings: at 10 µM
[8] = target: Fibroblast growth factor receptor 2 (Homo sapiens) (UniProt P21802); test: Selectivity interaction (KinomeScan (DiscoverX)) EUB0000595a FGFR2; settings: at 10 µM
Activated CDC42 kinase 1 = Activated CDC42 kinase 1 (Homo sapiens, UniProt Q07912); test: Selectivity interaction (KinomeScan (DiscoverX)) EUB0000595a TNK2; settings: at 10 µM
[9] = target: DNA (cytosine-5)-methyltransferase 3B (Homo sapiens) (UniProt Q9UBC3); settings: at 1 µM
[10] = target: T1, Mitogen-activated protein kinase kinase kinase 2 (Homo sapiens) (UniProt Q9Y2U5); test: Selectivity interaction (ActivX KiNativ screen (kinase selectivity in THP-1 cell lysates)) EUB0000639a MAP3K2; type: subcellular; settings: lysate, at 1 µM
T1 sequence (whole entry): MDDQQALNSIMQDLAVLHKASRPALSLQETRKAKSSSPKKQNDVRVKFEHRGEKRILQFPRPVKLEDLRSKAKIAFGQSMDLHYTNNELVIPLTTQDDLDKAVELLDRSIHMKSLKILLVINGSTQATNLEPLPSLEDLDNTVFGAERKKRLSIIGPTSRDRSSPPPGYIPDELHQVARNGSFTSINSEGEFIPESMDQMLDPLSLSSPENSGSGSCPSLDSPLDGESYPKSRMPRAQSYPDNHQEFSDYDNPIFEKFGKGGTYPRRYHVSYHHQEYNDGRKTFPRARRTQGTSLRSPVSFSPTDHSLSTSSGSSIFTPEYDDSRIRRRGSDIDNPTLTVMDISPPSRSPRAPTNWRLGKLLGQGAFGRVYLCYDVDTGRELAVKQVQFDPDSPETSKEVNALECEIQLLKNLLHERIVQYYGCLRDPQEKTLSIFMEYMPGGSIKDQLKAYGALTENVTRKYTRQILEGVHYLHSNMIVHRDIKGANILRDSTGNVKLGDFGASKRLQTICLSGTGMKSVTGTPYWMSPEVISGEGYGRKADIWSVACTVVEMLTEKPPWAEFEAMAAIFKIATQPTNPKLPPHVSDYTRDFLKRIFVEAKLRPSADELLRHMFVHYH

Misshapen-like kinase 1 = Misshapen-like kinase 1 (Homo sapiens, UniProt Q8N4C8); test: Selectivity interaction (ActivX KiNativ screen (kinase selectivity in THP-1 cell lysates)) EUB0000639a MINK1; type: subcellular; settings: lysate
[11] = target: G protein-coupled receptor kinase 4 (Homo sapiens) (UniProt P32298); test: Selectivity interaction (Kinase panel (Invitrogen)) EUB0000639a GRK4; settings: at 200 nM
[12] = target: Calcium/calmodulin-dependent protein kinase type 1D (Homo sapiens) (UniProt Q8IU85); test: Selectivity interaction (ActivX KiNativ screen (kinase selectivity in THP-1 cell lysates)) EUB0000639a CAMK1D; type: subcellular; settings: lysate, at 1 µM
Thromboxane A2 receptor = Thromboxane A2 receptor (Homo sapiens, UniProt P21731); test: Selectivity interaction (Thromboxane A2 receptor binding assay, human recombinant) EUB0000877a TBXA2R
[13] = target: Protein kinase C theta type (Homo sapiens, UniProt Q04759); test: Selectivity interaction (KinomeScan (DiscoverX)) EUB0000092b PRKCQ; settings: at 10 µM
[14] = target: Fibroblast growth factor receptor 4 (Homo sapiens, UniProt P22455); test: Selectivity interaction (Kinase panel (Z-LYTE Assay)) EUB0001632a FGFR4; settings: at 10 µM
[15] = target: T2, Serine/threonine-protein kinase D1 (Homo sapiens) (UniProt Q15139); test: Selectivity interaction (Kinase screening (Nanosyn)) EUB0000604a PRKD1
T2 sequence (whole entry): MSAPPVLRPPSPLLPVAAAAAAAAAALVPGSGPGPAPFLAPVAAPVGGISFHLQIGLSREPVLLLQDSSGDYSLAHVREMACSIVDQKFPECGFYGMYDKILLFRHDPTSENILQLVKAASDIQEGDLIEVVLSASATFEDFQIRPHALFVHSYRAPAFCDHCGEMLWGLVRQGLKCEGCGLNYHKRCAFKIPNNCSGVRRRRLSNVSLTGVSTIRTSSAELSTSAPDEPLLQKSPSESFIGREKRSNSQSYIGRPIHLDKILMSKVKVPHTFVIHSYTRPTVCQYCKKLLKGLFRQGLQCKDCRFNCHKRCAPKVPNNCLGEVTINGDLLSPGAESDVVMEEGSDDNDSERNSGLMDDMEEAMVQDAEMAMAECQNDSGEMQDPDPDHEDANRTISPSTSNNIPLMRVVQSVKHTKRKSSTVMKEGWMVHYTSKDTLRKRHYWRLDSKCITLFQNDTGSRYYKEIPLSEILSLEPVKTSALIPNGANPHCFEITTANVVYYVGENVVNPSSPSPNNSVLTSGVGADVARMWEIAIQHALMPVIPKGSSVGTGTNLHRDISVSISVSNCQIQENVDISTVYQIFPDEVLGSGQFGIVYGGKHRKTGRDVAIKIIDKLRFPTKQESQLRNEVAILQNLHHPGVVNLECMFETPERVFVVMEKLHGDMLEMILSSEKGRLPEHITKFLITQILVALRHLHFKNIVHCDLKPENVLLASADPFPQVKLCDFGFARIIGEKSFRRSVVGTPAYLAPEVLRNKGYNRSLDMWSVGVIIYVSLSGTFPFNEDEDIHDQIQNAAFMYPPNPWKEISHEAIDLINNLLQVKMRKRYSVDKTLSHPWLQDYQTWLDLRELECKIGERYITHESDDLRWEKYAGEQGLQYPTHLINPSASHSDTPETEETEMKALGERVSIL

Misshapen-like kinase 1, sequence (Q8N4C8 whole entry, looked up): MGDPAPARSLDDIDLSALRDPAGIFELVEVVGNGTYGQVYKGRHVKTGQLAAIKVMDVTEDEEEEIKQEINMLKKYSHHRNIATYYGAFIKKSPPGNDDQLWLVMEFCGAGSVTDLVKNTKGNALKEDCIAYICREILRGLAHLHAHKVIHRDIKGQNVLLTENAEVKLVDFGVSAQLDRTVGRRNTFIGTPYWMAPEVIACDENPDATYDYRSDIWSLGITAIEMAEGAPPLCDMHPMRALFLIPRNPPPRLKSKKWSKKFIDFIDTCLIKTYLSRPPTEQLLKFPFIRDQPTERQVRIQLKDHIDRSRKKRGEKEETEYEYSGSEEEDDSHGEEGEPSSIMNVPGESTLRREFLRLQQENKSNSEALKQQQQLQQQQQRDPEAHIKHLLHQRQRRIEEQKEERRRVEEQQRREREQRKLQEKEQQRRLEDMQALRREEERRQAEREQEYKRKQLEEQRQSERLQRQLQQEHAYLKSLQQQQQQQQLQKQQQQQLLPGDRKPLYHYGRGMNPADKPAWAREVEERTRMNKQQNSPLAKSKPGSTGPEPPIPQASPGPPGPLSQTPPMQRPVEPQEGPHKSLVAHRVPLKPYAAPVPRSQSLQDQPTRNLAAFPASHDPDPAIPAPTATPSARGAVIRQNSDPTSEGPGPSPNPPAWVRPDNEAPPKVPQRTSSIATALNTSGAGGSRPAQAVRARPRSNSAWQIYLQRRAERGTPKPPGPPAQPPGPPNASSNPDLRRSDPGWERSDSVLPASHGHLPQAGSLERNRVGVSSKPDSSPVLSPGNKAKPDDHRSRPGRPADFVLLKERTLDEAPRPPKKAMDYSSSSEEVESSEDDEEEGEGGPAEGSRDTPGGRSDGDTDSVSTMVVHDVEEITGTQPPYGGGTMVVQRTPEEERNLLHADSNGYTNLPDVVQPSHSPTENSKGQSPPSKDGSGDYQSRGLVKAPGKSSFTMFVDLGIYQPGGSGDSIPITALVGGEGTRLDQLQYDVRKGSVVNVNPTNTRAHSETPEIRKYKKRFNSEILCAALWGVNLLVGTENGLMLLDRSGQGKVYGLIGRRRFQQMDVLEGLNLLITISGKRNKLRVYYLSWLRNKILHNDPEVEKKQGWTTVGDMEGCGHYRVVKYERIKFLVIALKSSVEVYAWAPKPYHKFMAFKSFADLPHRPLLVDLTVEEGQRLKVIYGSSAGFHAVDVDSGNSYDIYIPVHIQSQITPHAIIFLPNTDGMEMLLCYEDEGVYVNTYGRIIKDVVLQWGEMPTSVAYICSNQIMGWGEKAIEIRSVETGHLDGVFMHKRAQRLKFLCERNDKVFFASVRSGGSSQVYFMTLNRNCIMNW
Activated CDC42 kinase 1, sequence (Q07912 whole entry, looked up): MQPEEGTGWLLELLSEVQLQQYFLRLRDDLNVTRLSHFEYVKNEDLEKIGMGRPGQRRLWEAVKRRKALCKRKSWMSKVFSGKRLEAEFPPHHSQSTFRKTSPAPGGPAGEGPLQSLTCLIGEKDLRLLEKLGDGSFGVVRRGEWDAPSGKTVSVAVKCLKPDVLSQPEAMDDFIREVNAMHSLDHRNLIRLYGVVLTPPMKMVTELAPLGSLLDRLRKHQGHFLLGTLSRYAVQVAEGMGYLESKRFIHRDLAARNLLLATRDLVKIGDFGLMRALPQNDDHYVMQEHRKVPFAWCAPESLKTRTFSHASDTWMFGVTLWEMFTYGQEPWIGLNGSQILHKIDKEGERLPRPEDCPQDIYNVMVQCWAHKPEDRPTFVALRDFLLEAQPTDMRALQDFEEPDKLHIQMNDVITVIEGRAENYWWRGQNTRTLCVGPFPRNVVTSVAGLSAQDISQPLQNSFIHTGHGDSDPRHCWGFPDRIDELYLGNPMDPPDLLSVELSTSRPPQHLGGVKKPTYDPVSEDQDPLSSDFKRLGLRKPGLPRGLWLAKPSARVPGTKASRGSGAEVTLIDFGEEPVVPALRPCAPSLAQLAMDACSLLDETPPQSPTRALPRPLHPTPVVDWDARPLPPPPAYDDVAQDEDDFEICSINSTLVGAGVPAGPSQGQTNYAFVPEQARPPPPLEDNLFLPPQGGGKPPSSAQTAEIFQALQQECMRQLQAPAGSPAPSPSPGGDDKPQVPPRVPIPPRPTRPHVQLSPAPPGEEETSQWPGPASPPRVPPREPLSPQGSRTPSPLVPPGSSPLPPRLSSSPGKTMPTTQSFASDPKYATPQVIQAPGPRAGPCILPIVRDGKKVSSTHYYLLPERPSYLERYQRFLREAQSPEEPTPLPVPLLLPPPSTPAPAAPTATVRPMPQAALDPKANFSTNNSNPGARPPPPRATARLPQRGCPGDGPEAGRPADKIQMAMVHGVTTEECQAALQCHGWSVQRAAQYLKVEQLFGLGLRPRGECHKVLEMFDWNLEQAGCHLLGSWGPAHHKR
Maternal embryonic leucine zipper kinase (Homo sapiens), sequence (Q14680 whole entry, looked up): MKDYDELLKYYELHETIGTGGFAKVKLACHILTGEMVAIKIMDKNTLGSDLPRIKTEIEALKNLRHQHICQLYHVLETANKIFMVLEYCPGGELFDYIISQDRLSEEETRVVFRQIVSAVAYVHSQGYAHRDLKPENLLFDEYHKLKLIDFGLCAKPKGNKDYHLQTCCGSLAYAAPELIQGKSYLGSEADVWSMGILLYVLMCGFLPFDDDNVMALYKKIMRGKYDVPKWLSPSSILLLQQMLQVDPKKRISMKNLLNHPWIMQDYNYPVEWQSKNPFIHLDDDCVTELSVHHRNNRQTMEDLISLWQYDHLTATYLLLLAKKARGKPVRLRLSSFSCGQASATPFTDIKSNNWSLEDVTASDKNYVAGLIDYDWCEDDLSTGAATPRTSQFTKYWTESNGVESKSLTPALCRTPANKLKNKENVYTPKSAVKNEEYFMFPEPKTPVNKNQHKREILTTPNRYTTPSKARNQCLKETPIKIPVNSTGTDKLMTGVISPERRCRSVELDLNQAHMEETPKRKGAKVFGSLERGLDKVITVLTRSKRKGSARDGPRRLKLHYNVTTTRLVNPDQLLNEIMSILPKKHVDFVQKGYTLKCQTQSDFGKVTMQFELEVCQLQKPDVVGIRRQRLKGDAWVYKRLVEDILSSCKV
Fibroblast growth factor receptor 2 (Homo sapiens), sequence (P21802 22-821 limits assumed): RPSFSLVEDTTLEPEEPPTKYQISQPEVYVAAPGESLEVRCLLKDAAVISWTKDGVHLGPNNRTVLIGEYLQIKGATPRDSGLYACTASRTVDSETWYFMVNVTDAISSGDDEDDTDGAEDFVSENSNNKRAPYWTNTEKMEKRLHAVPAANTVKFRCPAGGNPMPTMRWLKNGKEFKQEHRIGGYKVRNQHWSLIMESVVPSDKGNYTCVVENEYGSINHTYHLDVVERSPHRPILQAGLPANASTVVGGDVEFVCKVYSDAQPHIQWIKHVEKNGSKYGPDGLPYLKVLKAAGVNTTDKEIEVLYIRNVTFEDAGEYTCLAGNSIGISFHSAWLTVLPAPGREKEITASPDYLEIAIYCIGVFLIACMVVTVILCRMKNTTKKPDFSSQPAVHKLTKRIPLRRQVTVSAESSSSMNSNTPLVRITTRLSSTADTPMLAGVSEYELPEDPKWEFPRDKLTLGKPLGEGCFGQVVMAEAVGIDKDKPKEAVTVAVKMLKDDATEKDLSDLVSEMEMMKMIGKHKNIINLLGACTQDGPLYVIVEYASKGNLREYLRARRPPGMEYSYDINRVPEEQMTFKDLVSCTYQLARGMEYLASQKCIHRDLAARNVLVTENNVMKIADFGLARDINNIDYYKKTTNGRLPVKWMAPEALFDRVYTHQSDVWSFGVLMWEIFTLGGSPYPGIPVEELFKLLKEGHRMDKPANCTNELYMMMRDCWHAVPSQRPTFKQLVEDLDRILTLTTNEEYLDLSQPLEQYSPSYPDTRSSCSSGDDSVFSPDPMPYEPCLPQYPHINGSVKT
Serine/threonine-protein kinase 24 (Homo sapiens), sequence (Q9Y6E0 whole entry, looked up): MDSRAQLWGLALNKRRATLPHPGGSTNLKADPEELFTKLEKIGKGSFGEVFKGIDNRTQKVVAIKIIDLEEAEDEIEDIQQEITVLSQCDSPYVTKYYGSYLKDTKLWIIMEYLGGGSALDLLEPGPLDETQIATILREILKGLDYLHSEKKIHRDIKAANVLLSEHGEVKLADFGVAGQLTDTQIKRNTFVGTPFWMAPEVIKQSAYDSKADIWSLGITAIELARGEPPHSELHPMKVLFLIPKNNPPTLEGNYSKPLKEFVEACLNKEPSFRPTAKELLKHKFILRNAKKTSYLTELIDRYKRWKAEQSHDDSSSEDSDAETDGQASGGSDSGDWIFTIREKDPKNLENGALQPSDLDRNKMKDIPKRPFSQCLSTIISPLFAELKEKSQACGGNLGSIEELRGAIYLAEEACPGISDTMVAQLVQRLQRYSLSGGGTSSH
Thromboxane A2 receptor, sequence (P21731 whole entry): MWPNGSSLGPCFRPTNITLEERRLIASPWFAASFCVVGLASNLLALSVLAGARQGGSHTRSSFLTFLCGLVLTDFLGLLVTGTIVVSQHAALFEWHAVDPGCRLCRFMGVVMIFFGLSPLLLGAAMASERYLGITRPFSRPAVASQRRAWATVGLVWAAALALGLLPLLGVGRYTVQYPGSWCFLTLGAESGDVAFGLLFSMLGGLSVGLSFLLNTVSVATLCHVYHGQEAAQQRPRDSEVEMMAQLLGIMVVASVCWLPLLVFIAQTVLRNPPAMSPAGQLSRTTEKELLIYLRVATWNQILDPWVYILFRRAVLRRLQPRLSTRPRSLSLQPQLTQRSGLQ
MAP kinase-interacting serine/threonine-protein kinase 1 (Homo sapiens), sequence (Q9BUB5 whole entry, looked up): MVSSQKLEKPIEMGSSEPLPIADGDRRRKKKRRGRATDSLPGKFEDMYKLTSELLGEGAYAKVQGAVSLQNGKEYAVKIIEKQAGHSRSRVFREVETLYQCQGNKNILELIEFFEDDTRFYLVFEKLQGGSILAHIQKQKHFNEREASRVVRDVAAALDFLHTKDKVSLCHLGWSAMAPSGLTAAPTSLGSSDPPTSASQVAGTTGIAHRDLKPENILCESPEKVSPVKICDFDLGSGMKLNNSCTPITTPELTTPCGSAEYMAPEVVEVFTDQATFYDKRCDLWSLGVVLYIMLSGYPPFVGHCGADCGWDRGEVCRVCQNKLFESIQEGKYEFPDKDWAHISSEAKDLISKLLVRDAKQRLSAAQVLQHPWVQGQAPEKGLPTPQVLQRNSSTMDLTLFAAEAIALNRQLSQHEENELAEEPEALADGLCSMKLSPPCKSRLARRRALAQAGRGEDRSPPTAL

CN(C)C/C=C/C(=O)Nc1ccc(C(=O)N2CCCC(Nc3ncc(Cl)c(-c4c[nH]c5ccccc45)n3)C2)cc1 (configuration not stated)
% of control [1]: 77%

CN(C)CCOc1ccc(-c2nc(-c3ccncc3)c(-c3ccc4c(c3)CC/C4=N\O)[nH]2)cc1
% of control [2]: 6%

N#Cc1cccc(-c2c[nH]c3ncnc(N4CCOCC4)c23)c1
% of control [3]: 100%
% of control [4]: 100%
% of control [5]: 60%

COCC(=O)NC/C=C/c1ccc2ncnc(Nc3ccc(Oc4ccc(C)nc4)c(C)c3)c2c1 [CP-724714]
% of control [6]: 97%
% of control [7]: 92%
% of control [8]: 100%
% of control (Activated CDC42 kinase 1): 78%

CNCCN1CCC(c2cc(CN(C)C(=O)c3cccc(Oc4ccccc4)c3)ccn2)CC1
% activity [9]: > 85%

CC[C@@H]1[C@H](F)C(=O)N[C@@H]1COc1nccc2cc(C(N)=O)c(OC)cc12 [ZIMLOVISERTIB]
% of inhibition [10]: -7.6%
% of inhibition (Misshapen-like kinase 1; at 0.01 µM): -5.5%
% of inhibition (Misshapen-like kinase 1; at 0.04 µM): -1.7%
% of inhibition (Misshapen-like kinase 1; at 0.2 µM): -13.9%
% of inhibition (Misshapen-like kinase 1; at 1 µM): -2.7%
% of inhibition (Misshapen-like kinase 1; at 5 µM): 3.1%
% of inhibition [11]: -5.8%
% of inhibition [12]: -1.2%

CCC(=O)N1CC[C@H](Nc2ncnc3c2CN(c2cnc(OC)c(C(F)(F)F)c2)CC3)C1 [LENIOLISIB]
IC50 (Thromboxane A2 receptor): > 30 µM

CCC(=O)N1CCN(c2ccc(-n3c(=O)ccc4cnc5ccc(-c6cnc7ccccc7c6)cc5c43)cc2C(F)(F)F)CC1
% of control [13]: 91%

Cn1cc(-n2cnc3c(NCc4nc5cc(Cl)c(Cl)cc5[nH]4)nc(N4CCOCC4)nc32)cn1
% of control [14]: 3.57%

Cc1cnc(Nc2ccc(F)cc2Cl)nc1-c1c[nH]c(C(=O)N[C@H](CO)c2cccc(Cl)c2)c1
% of inhibition [15]: 43%
